Source: BigSolDB 2.1

C[N+](C)(C)CC(=O)[O-]
Settings	solubility (mole fraction)
in ethanol, 282.95 K	0.0264
in ethanol, 288.15 K	0.0298
in ethanol, 293.65 K	0.0336
in ethanol, 298.45 K	0.0372
in ethanol, 303.05 K	0.041
in isopropanol, 283.45 K	0.00458
in isopropanol, 288.65 K	0.0054
in isopropanol, 293.15 K	0.00622
in isopropanol, 298.45 K	0.0071
in isopropanol, 303.35 K	0.00823
in methanol, 283.15 K	0.117
in methanol, 288.15 K	0.121
in methanol, 293.55 K	0.126
in methanol, 298.25 K	0.131
in methanol, 303.2 K	0.136
in n-butanol, 283.45 K	0.00812
in n-butanol, 288.7 K	0.00964
in n-butanol, 293.05 K	0.0109
in n-butanol, 298.35 K	0.0125
in n-butanol, 302.9 K	0.0142
in n-propanol, 282.85 K	0.0134
in n-propanol, 288.15 K	0.0154
in n-propanol, 293.55 K	0.0177
in n-propanol, 298.23 K	0.02
in n-propanol, 303.45 K	0.0225
in water, 283.15 K	0.184
in water, 288.25 K	0.189
in water, 293.2 K	0.194
in water, 298.35 K	0.2
in water, 303.25 K	0.206
